Experimental data taken from EP0569096A1, “Depot preparation” (Akzo Nobel N.V., priority 1992, dated 1993).
Counter-ions that a name gives are not always drawn. Values belong to the molecule of their own block, whether it stands above or below them.

Experiments:
[1] = water solubility of the salts; conditions: general statement in the disclosure of the invention
physchem = conditions: water
[2] = stability of the crystalline form compared with the amorphous solid; assay type: physicochemical; conditions: crystals formed after storage for two weeks at 50° C
Experimental: (§1) The pamoate salt of EXAMPLE I was stored for two weeks at 50° C, and crystals spontaneously formed. […] Furthermore they were easier to segregate for micronization, and easier to form a suspension with.

[3] = solubility of the crystalline form compared with the amorphous solid; assay type: physicochemical; conditions: crystals formed after storage for two weeks at 50° C
Experimental: as §1

solubility (in words) [1]: very insoluble
Structure (SMILES): CN1CC2c3ccccc3Oc3ccc(Cl)cc3C2C1.CN1CC2c3ccccc3Oc3ccc(Cl)cc3C2C1.O=C(O)c1cc2ccccc2c(Cc2c(O)c(C(=O)O)cc3ccccc23)c1O [hemipamoate]

Structure (SMILES): CN1C[C@H]2c3ccccc3Oc3ccc(Cl)cc3[C@@H]2C1 (relative stereo) [fumarate]
solubility (physchem): 1000 µg/mL

Structure (SMILES): CN1C[C@H]2c3ccccc3Oc3ccc(Cl)cc3[C@@H]2C1 (relative stereo) [pamoate salt]
solubility (in words) [1]: very insoluble

stability relative to the amorphous yellow solid [2]: more stable
solubility relative to the amorphous yellow solid [3]: less soluble
Structure (SMILES): CN1C[C@@H]2c3ccccc3Oc3ccc(Cl)cc3[C@H]2C1.O=C(O)c1cc2ccccc2c(Cc2c(O)c(C(=O)O)cc3ccccc23)c1O [crystals]
